{
  "source": "patent US12492214B2",
  "about": "“Solid state forms of Risdiplam and process for preparation thereof” (ASSIA CHEMICAL INDUSTRIES LTD., priority 2019, dated 2025)",
  "assay": "Stability of the solid form under mass pressure",
  "format": "physicochemical",
  "conditions": "mass pressure of 1 ton for 3 minutes",
  "experimental": "Form 3 is characterized by needle to ‘rod-like’ morphology. This morphology may be beneficial for flowability properties. In addition, Form 3 is found to be stable under mass pressure of 1 ton for 3 minutes.",
  "data": [
    {"smiles": "Cc1cn2nc(-c3cc(=O)n4cc(N5CCNC6(CC6)C5)ccc4n3)cc(C)c2n1", "note": "[Form 3, 7-(4,7-diazaspiro[2.5]octan-7-yl)-2-(2,8-dimethylimidazo[1,2-b]pyridazin-6-yl)-4H-pyrido[1,2-a]pyrimidin-4-one]", "values": [
      {"measurement": "stability under mass pressure", "result": "stable"}
    ]}
  ]
}
